Article PMC10458971, “Chemical Constituents with Anti-Lipid Droplet Accumulation and Anti-Inflammatory Activity from Elaeagnus glabra” (Plants, 2023)
“Also recorded” adds a separate entry of the source. Read-outs that look alike come from different tables or passages of the source. One block for each compound: values may come before it.

Legend:
Format in all cases: cell-based
[1] = tested on: fMLP/CB-induced human neutrophils; assay: Elastase release in fMLP/CB-induced human neutrophils; conditions: mean ± S.E.M. (n = 3–4)
From the text: (§1) NAFLD is accompanied by inflammation. In the NASH stage, the liver is inflamed. As the NAFLD progresses, persistent inflammation causes scar tissue around the liver; this is called the fibrosis stage. After years of inflammation, liver damage occurs and becomes cirrhosis. To explore the potential of compounds for managing inflammation, eight compounds were preliminarily evaluated for their effects on neutrophil pro-inflammatory responses by suppressing fMLP/CB-induced superoxide anion generation and elastase release (Figure 6 and Table 4). […] These two compounds were further evaluated for their anti-inflammatory activity IC50 values (Table 4).
(§2) Neutrophils were collected from healthy adults aged 20–35 and isolated using Ficoll-Paque density separation. The study was approved by Chang Gung Memorial Hospital’s Institutional Review Board (IRB No. 201902217A3) following the Declaration of Helsinki guidelines. The methods for testing the effects of isolates on superoxide anion generation and elastase release in neutrophils were based on studies published by Professor Tsong-Long Hwang. Ferricytochrome c (0.6 mg/mL) was used to measure superoxide anion. Elastase substrate (methoxysuccinyl-Ala-Ala-Pro-Val-p-nitroanilide, 100 µM; Merck) was employed to detect the elastase release. The elastase level was detected using a spectrophotometer at OD 405 nm. A PI3K inhibitor, namely, LY29002, was used as a positive control in the neutrophil assays. All assays were repeated at least three times. Results are presented as the mean ± standard error of the mean (S.E.M.). Student′s t-test was used to compare the test isolates with a DMSO (0.1%) control. A probability of less than 0.05 was considered significant.

[2] = tested on: fMLP/CB-induced human neutrophils; assay: Superoxide anion generation in fMLP/CB-induced human neutrophils; conditions: for IC50: fMLP/CB-induced human neutrophils, mean ± S.E.M. (n = 3–4); for Inhibitory activity toward superoxide anion generation or elastase release (preliminary screening, Inh%): 10 μM, Figure 6
From the text: as §1, §2

AML12 cell line [3] = assay: Cell viability (nucleus counts, DAPI image) in AML12 cells; conditions: AML12; for Cell Viability (%, 24h, DAPI Image): compound 100 μg/mL, nucleus counts of DMSO = 100%
Procedure: (§3) In this study, twelve compounds present in sufficient amounts (9, 11, 15, 16, 18–20, 22, 25, 30, 31, and 37) were evaluated for anti-LD accumulation activity (Table 3). To assess the anti-LD formation activity, the average LD counts/cell of bovine serum albumin (BSA)-conjugated oleic acid (OA) + drug vehicle (DMSO)-treated wells (hereinafter referred to as OA) were used as the standard for 100% fat loading, and triacsin C (TC) was used as the reference control. […] In Figure 5A, the blue pseudocolor indicates the nuclei area, and the green ones depict the LD area.
(§4) Cells were cultured as described previously. The medium for AML12 (BCRC 60326; Bioresources Collection and Research Center (BCRC), Hsinchu, Taiwan) was a 1:1 mixture of DMEM and Ham’s F12 medium with 10% FBS and 1× ITS-A supplement (Thermo Fisher Scientific).

AML12 cell line [4] = assay: LD assay: anti-lipid droplet accumulation in oleic-acid-treated AML12 cells (BODIPY 493/503)
Procedure: as §3
Figure 5 Effect of methyl pheophorbide a (37) on LD accumulation. (A) Representative images of the anti-LD formation activity of methyl pheophorbide a (37). (B) Quantification results of the LD assay and cell viability. AML12 cells were treated with BSA or OA (125 µM) with 20 µM methyl pheophorbide a (37) for 24 h. AML12 cells were used as a cell model for lipid accumulation—they were treated with 125 μM oleic acid (OA) for 24 h. Nuclei and LD were stained with Hoechst 33342 (blue) and BODIPY® 493/503 (green), respectively. The asterisk indicates a significant difference from the solvent control cells (*** p < 0.001, one-way ANOVA). TEXT PRINTED IN THE PICTURE: (B) BSA: Normalized LD Count (%): 17.3% *** | (B) OA: Normalized LD Count (%): 100.0% | (B) OA + 37: Normalized LD Count (%): 0.3% ***
as §4
The LD accumulation of the test compounds was evaluated according to the studies published by co-author Professor Chia-Hung Yen. The LD accumulation was detected by BODIPY® 493/503 dye (Thermo Fisher Scientific). LD accumulation was achieved by treating cells with OA conjugated to BSA. All data were analyzed with GraphPad Prism 6.01 software (La Jolla, CA, USA). One-way analysis of variance (ANOVA) followed by Tukey’s comparison test was used to compare differences between multiple groups. A p-value < 0.05 was considered statistically significant.

[5] = Cell viability (nucleus counts, DAPI image) in AML12 cells; conditions: mouse
Procedure: as §3, §4

[6] = compound 100 μg/mL, AML12, average LD counts/cell of oleic-acid-treated group = 100% fat-loading
[7] = AML12 cells, compound 100 μg/mL, 24 h, AML12, nucleus counts of DMSO = 100%, read-out: Cell Viability (%, 24h, DAPI Image)
[8] = Mus musculus, compound 100 μg/mL, AML12, average LD counts/cell of oleic-acid-treated group = 100% fat-loading, read-out: Relative Lipid Droplet Count (%)
[9] = Mus musculus, AML12, read-out: Relative Lipid Droplet Count (%)
[10] = compound 100 μg/mL, 24 h, AML12, nucleus counts of DMSO = 100%, read-out: Cell Viability (%, 24h, DAPI Image)

- IC50 ([1]; Homo sapiens, Neutrophil): > 10 µM
- IC50 ([2]; Homo sapiens, Neutrophil): > 10 µM
Compound: CC1(C)CC[C@@]23CC[C@]4(C)[C@@](OC2=O)([C@@H]3C1)[C@H]1O[C@H]1[C@@H]1[C@@]2(C)CC[C@H](OC(=O)/C=C/c3ccc(O)c(O)c3)C(C)(C)[C@@H]2CC[C@]14C [elaeagterpene A (2), (3S,4aR,6aR,6bS,8aS,12aR,12bS,12cS,13aS,13bR,13cS)-4,4,6a,6b,11,11,13c-Heptamethyl-15-oxooctadecahydro-1H,9H-12b,8a-(epoxymethano)piceno [13,14-b]oxiren-3-yl(E)-3-(3,4-dihydroxyphenyl)acrylate]

Compound: CC[C@H](CC[C@@H](C)[C@H]1CC[C@H]2[C@@H]3CCC4=CC(=O)CC[C@]4(C)[C@H]3CC[C@]12C)C(C)C [β-sitosterone (31), β-sitosterone]
- Cell Viability (%, 24h, DAPI Image) (AML12 cell line [3]): 135.3 ± 7.3%
- Relative Lipid Droplet Count (%) (AML12 cell line [4]; [6]): 121.5 ± 4.3%

Compound: C=C(C)[C@@H]1CC[C@]2(C)CC[C@]3(C)[C@H](CC[C@@H]4[C@@]5(C)CC[C@H](O)C(C)(C)[C@@H]5CC[C@]43C)[C@@H]12 [lupeol (9), lupeol]
- viability at 24 h, 100 μg/mL [5, 7]: 114 ± 3.6%
- activity at 100 µg/mL (AML12 cell line [4]; [8]): 95.2 ± 1.8%

- IC50 ([1]; Homo sapiens, Neutrophil): 2.61 ± 0.72 µM
- IC50 ([2]; Homo sapiens, Neutrophil): 1.29 ± 0.52 µM
Compound: O=c1cc(N2CCOCC2)oc2c(-c3ccccc3)cccc12 [LY294002, reference compound]

- IC50 [1]: > 10 µM
- IC50 [2]: 3.01 ± 0.58 µM
Compound: CC1(C)CC[C@]2(C(=O)O)CC[C@]3(C)C(=CCC4[C@@]5(C)CC[C@H](OC(=O)/C=C/c6ccc(O)c(O)c6)C(C)(C)C5CC[C@]43C)C2C1 (stereo partly shown) [3-O-(E)-caffeoyloleanolic acid (13), 3-O-(E)-caffeoyloleanolic acid]
- Inhibitory activity toward superoxide anion generation or elastase release (preliminary screening, Inh%) [2]: significant inhibitory activity

Compound: Oc1cc(O)c2c(c1)O[C@@H](c1cc(O)c(O)c(O)c1)[C@H](O)C2 [(−)-gallocatechin (20), (−)-gallocatechin]
- viability at 24 h, 100 μg/mL [5]: 154 ± 6.2%
- activity at 100 µg/mL (AML12 cell line [4]; [8]): 117 ± 7.8%

Compound: Oc1cc(O)c2c(c1)O[C@H](c1cc(O)c(O)c(O)c1)[C@H](O)C2 [(−)-epigallocatechin (19), (−)-epigallocatechin]
- Relative Lipid Droplet Count (%) (AML12 cell line [4]; [6]): 93.5 ± 6.6%

- IC50 [1]: > 10 µM
- IC50 [2]: > 10 µM
Compound: C=C(C)C1CCC2(C(=O)O)CCC3(C)C(CCC4C5(C)CCC(OC(=O)C=Cc6ccc(O)c(O)c6)C(C)(C)C5CCC43C)C12 (single isomer, unassigned; (+)) [(+)-3β-O-trans-caffeoyl betulinic acid]

Compound: Oc1cc(O)c2c(c1)O[C@@H](c1ccc(O)c(O)c1)[C@H](O)C2 [(−)-catechin (16), (−)-catechin]
- viability at 24 h, 100 μg/mL [5, 7]: 154 ± 12.3%
- activity at 100 µg/mL (AML12 cell line [4]; [8]): 111 ± 5.1%

Compound: Oc1cc(O)c2c(c1)O[C@H](c1ccc(O)c(O)c1)[C@H](O)C2 [(−)-epicatechin (18), (−)-epicatechin]
- viability at 24 h, 100 μg/mL [5, 7]: 146 ± 10.3%
- activity at 100 µg/mL (AML12 cell line [4]; [8]): 116 ± 6%

Compound: CCC/C=C/C/C=C/C=C/C=N/NN=O [TC, Triacsin C, reference compound]
- viability at 24 h, 0.008 µM ([5]; positive control, drug concentration 8 nM, 24 h, AML12, DMSO = 100%): 126 ± 6.1%
- activity at 0.008 µM (AML12 cell line [4]; [9]): 60.6 ± 0.2%

Compound: plumbocatechin A [plumbocatechin A (22)]
- Cell Viability (%, 24h, DAPI Image) (AML12 cell line [3]): 147.8 ± 9.6%
- Relative Lipid Droplet Count (%) (AML12 cell line [4]; [6]): 118.2 ± 3.1%

Compound: COc1cc(C=O)cc(OC)c1O [syringaldehyde (25), syringaldehyde]
- IC50 ([1]; Neutrophil): > 10 µM
- viability at 24 h, 100 μg/mL [5, 10]: 138 ± 5.7%
- activity at 100 µg/mL (AML12 cell line [4]; [9]): 102 ± 5%
- IC50 ([2]; Neutrophil): > 10 µM

- IC50 [1]: > 10 µM
- IC50 [2]: > 10 µM
Compound: CC1(C)CC[C@]2(C(=O)O)CC[C@]3(C)C(=C[C@@H](O)[C@@H]4[C@@]5(C)C[C@@H](O)[C@H](O)[C@@](C)(CO)[C@@H]5CC[C@]43C)[C@@H]2C1 [cleistocalyxic acid E (7), cleistocalyxic acid E]

Compound: CC[C@H](CC[C@@H](C)[C@H]1CC[C@H]2[C@@H]3CC=C4C[C@@H](O)CC[C@]4(C)[C@H]3CC[C@]12C)C(C)C [β-sitosterol (30), β-sitosterol]
- viability at 24 h, 100 μg/mL [5, 10]: 128 ± 9.1%
- activity at 100 µg/mL (AML12 cell line [4]; [9]): 113 ± 7.6%

- IC50 ([1]; Homo sapiens, Neutrophil): > 10 µM
- IC50 ([2]; Homo sapiens, Neutrophil): > 10 µM
Compound: O=C(O)c1ccc(CCO)cc1 [4-(2-hydroxyethyl)benzoic acid (26), 4-(2-hydroxyethyl)benzoic acid]

- IC50 ([1]; Homo sapiens, Neutrophil): < 3 µM
- IC50 [1]: 2.35 ± 0.12 µM
Compound: C=Cc1c(C)c2cc3nc(c4c5[nH]c(cc6nc(cc1[nH]2)C(C)=C6CC)c(C)c5C(=O)[C@@H]4C(=O)OC)[C@@H](CCC(=O)OC)[C@@H]3C [methyl pheophorbide a (37), methyl pheophorbide a]
- Cytotoxicity (AML12 cell line [3]; 20 μM): without significant cytotoxic effects; also recorded: without cytotoxicity
- Cell Viability (%, 24h, DAPI Image) (AML12 cell line [3]): did not affect the cell viability
- viability at 24 h, 100 μg/mL [5, 7]: 99.5 ± 5.4%
- LD content reduction (AML12 cell line [4]; 20 μM, AML12): more than 90%
- Normalized LD Count (%) / normalized LD content (AML12 cell line [4]; 20 μM, AML12, OA 125 μM, 24 h, OA = 100%): 0.3%
- activity at 100 µg/mL (AML12 cell line [4]; [8]): 0.3 ± 0.1%
- Inhibitory activity toward superoxide anion generation or elastase release (preliminary screening, Inh%) [2]: significant inhibitory activity

- IC50 [1]: > 10 µM
- IC50 [2]: > 10 µM
Compound: CC1(C)CCC23CCC4(C)C5(C)CCC6C(C)(CO)C(O)C(O)CC6(C)C5C5OC5C4(OC2=O)C3C1 (stereo not drawn) [2α,3β,23-trihydroxy-11α,12α-epoxyolean-28,13β-olide]

Compound: plumbocatechins B [plumbocatechins B (15)]
- Cell Viability (%, 24h, DAPI Image) (AML12 cell line [3]): 132.5 ± 11.8%
- Relative Lipid Droplet Count (%) (AML12 cell line [4]; [6]): 105.9 ± 7.8%

Compound: C[C@H]1[C@H](C)CC[C@]2(C(=O)O)CC[C@]3(C)C(=CC[C@@H]4[C@@]5(C)CC[C@H](O)C(C)(C)[C@@H]5CC[C@]43C)[C@H]12 [ursolic acid (11), ursolic acid]
- viability at 24 h, 100 μg/mL [5, 7]: 146 ± 4.5%
- activity at 100 µg/mL (AML12 cell line [4]; [8]): 99.2 ± 4%
